Numbers after ± are expanded uncertainties.
Assay: activity coefficient (dimensionless); of the first substance listed, at infinite dilution; xn = mol fraction of the nth substance listed
Details: Liquid, Chromatography, x1 = 0

Row | SMILES | activity coefficient (323.15 K) | activity coefficient (333.15 K) | activity coefficient (343.15 K)
1 | CCC(C)=O [butanone] + Cn1cc[n+](COCCCOC[n+]2ccn(C)c2)c1.N#C[N-]C#N.N#C[N-]C#N | 1.7 ± 0.11 | 1.56 ± 0.1 | 1.44 ± 0.09
2 | CCCCO [butan-1-ol] + CCCOC[n+]1ccn(Cc2ccccc2)c1.N#C[N-]C#N | 0.93 ± 0.06 | 0.88 ± 0.06 | 0.82 ± 0.05
3 | Cc1cccc(C)c1 [1,3-dimethylbenzene] + CCCOC[n+]1ccn(Cc2ccccc2)c1.N#C[N-]C#N | 3.62 ± 0.25 | 3.52 ± 0.24 | 3.42 ± 0.23
4 | CCCO [propan-1-ol] + CCCCCCCCn1cc[n+](COCCC)c1C.O=S(=O)([N-]S(=O)(=O)C(F)(F)F)C(F)(F)F | 1.16 ± 0.07 | 1.06 ± 0.07 | 0.98 ± 0.06
5 | C1COCCO1 [1,4-dioxane] + CCCCCCCCn1cc[n+](COCCCOC[n+]2ccn(CCCCCCCC)c2C)c1C.O=S(=O)([N-]S(=O)(=O)C(F)(F)F)C(F)(F)F.O=S(=O)([N-]S(=O)(=O)C(F)(F)F)C(F)(F)F | 0.28 ± 0.03 | 0.27 ± 0.03 | 0.28 ± 0.03
6 | CCCCCCCCCCC [undecane] + CN(C)c1cc[n+](COCCCOC[n+]2ccc(N(C)C)cc2)cc1.O=S(=O)([N-]S(=O)(=O)C(F)(F)F)C(F)(F)F.O=S(=O)([N-]S(=O)(=O)C(F)(F)F)C(F)(F)F | 114 ± 7.8 | 99 ± 6.8 | 88.6 ± 6.1
7 | CC#N [acetonitrile] + CCCOC[n+]1ccn(C)c1.N#C[N-]C#N | 0.77 ± 0.05 | 0.78 ± 0.05 | 1.09 ± 0.07
8 | CCO [ethanol] + CCCCCCCCn1cc[n+](COCCCOC[n+]2ccn(CCCCCCCC)c2C)c1C.N#C[N-]C#N.N#C[N-]C#N | 0.3 ± 0.03 | 0.29 ± 0.03 | 0.29 ± 0.03
9 | CCCC(C)=O [pentan-2-one] + CCCCCCCCn1cc[n+](COCCC)c1C.N#C[N-]C#N | 0.95 ± 0.06 | 0.96 ± 0.06 | 0.98 ± 0.06
10 | CCC(=O)CC [pentan-3-one] + CCCCCCCCn1cc[n+](COCCC)c1C.O=S(=O)([N-]S(=O)(=O)C(F)(F)F)C(F)(F)F | 0.45 ± 0.04 | 0.45 ± 0.04 | 0.47 ± 0.04
11 | C1CCCCCC1 [cycloheptane] + CCCCCCCCn1cc[n+](COCCC)c1C.N#C[N-]C#N | 15.7 ± 1.1 |  | 
12 | C=CCCCC [hex-1-ene] + Cn1cc[n+](COCCCOC[n+]2ccn(C)c2)c1.O=S(=O)([N-]S(=O)(=O)C(F)(F)F)C(F)(F)F.O=S(=O)([N-]S(=O)(=O)C(F)(F)F)C(F)(F)F | 15.1 ± 1 | 10.1 ± 0.69 | 
13 | CCCC(C)=O [pentan-2-one] + CN(C)c1cc[n+](COCCCOC[n+]2ccc(N(C)C)cc2)cc1.O=S(=O)([N-]S(=O)(=O)C(F)(F)F)C(F)(F)F.O=S(=O)([N-]S(=O)(=O)C(F)(F)F)C(F)(F)F | 0.69 ± 0.05 | 0.7 ± 0.05 | 0.71 ± 0.05
14 | CCCCO [butan-1-ol] + Cn1cc[n+](COCCCOC[n+]2ccn(C)c2)c1.N#C[N-]C#N.N#C[N-]C#N | 2.21 ± 0.15 | 1.9 ± 0.13 | 1.79 ± 0.12
15 | CCCCCC [hexane] + CCCOC[n+]1ccn(Cc2ccccc2)c1.N#C[N-]C#N | 32.4 ± 2.2 |  | 
16 | CCCCCCCCC [nonane] + CCCCCCCCn1cc[n+](COCCCOC[n+]2ccn(CCCCCCCC)c2C)c1C.O=S(=O)([N-]S(=O)(=O)C(F)(F)F)C(F)(F)F.O=S(=O)([N-]S(=O)(=O)C(F)(F)F)C(F)(F)F | 8.26 ± 0.56 | 7.45 ± 0.51 | 7.1 ± 0.48

Row | SMILES | activity coefficient (323.15 K) | activity coefficient (333.15 K) | activity coefficient (343.15 K)
17 | c1ccsc1 [thiophene] + CCCOC[n+]1ccn(Cc2ccccc2)c1.N#C[N-]C#N | 0.98 ± 0.06 | 1.02 ± 0.06 | 1.04 ± 0.07
18 | ClC(Cl)Cl [trichloromethane] + Cn1cc[n+](COCCCOC[n+]2ccn(C)c2)c1.N#C[N-]C#N.N#C[N-]C#N | 1.02 ± 0.06 | 1.08 ± 0.07 | 1.14 ± 0.07
19 | C1COCCO1 [1,4-dioxane] + CCCOC[n+]1ccn(Cc2ccccc2)c1.F[B-](F)(F)F | 0.95 ± 0.06 | 0.95 ± 0.06 | 0.96 ± 0.06
20 | CCC(C)=O [butanone] + CCCOC[n+]1ccn(C)c1.O=S(=O)([N-]S(=O)(=O)C(F)(F)F)C(F)(F)F | 0.47 ± 0.04 | 0.43 ± 0.04 | 0.4 ± 0.03
21 | Cc1ccc(C)cc1 [1,4-dimethylbenzene] + CCCCCCCCn1cc[n+](COCCCOC[n+]2ccn(CCCCCCCC)c2C)c1C.O=S(=O)([N-]S(=O)(=O)C(F)(F)F)C(F)(F)F.O=S(=O)([N-]S(=O)(=O)C(F)(F)F)C(F)(F)F | 0.75 ± 0.05 | 0.73 ± 0.05 | 0.73 ± 0.05
22 | CCO [ethanol] + CCCOC[n+]1ccn(Cc2ccccc2)c1.F[B-](F)(F)F | 1.65 ± 0.11 | 1.49 ± 0.1 | 1.38 ± 0.09
23 | Cc1ccccc1C [1,2-dimethylbenzene] + CCCOC[n+]1ccn(C)c1.O=S(=O)([N-]S(=O)(=O)C(F)(F)F)C(F)(F)F | 2.3 ± 0.16 | 2.28 ± 0.16 | 2.29 ± 0.16
24 | C=CCCCC [hex-1-ene] + CCCCCCCCn1cc[n+](COCCCOC[n+]2ccn(CCCCCCCC)c2C)c1C.O=S(=O)([N-]S(=O)(=O)C(F)(F)F)C(F)(F)F.O=S(=O)([N-]S(=O)(=O)C(F)(F)F)C(F)(F)F | 2.33 ± 0.16 | 2.51 ± 0.17 | 2.35 ± 0.16
25 | CC1CCCCC1 [methylcyclohexane] + CCCOC[n+]1ccn(C)c1.O=S(=O)([N-]S(=O)(=O)C(F)(F)F)C(F)(F)F | 13 ± 0.89 | 12.9 ± 0.88 | 13 ± 0.89
26 | CC#N [acetonitrile] + CCCOC[n+]1ccn(Cc2ccccc2)c1.N#C[N-]C#N | 0.72 ± 0.05 | 0.76 ± 0.05 | 0.77 ± 0.05
27 | c1ccccc1 [benzene] + CCCOC[n+]1ccn(C)c1.N#C[N-]C#N | 2.25 ± 0.15 | 2.27 ± 0.15 | 2.29 ± 0.16
28 | CC(C)OC(C)C [diisopropyl ether] + CCCCCCCCn1cc[n+](COCCCOC[n+]2ccn(CCCCCCCC)c2C)c1C.O=S(=O)([N-]S(=O)(=O)C(F)(F)F)C(F)(F)F.O=S(=O)([N-]S(=O)(=O)C(F)(F)F)C(F)(F)F | 1.54 ± 0.1 | 1.56 ± 0.1 | 1.54 ± 0.1
29 | Cc1ccccc1 [toluene] + CCCOC[n+]1ccn(C)c1.F[B-](F)(F)F | 6.06 ± 0.41 | 6.02 ± 0.41 | 5.98 ± 0.41
30 | CCCCCCCCC [nonane] + CCCCCCCCn1cc[n+](COCCC)c1C.N#C[N-]C#N | 14.9 ± 1 | 13.6 ± 0.93 | 13.1 ± 0.9
31 | ClC(Cl)(Cl)Cl [tetrachloromethane] + Cn1cc[n+](COCCCOC[n+]2ccn(C)c2)c1.O=S(=O)([N-]S(=O)(=O)C(F)(F)F)C(F)(F)F.O=S(=O)([N-]S(=O)(=O)C(F)(F)F)C(F)(F)F | 3.21 ± 0.22 | 3.03 ± 0.21 | 2.29 ± 0.16
32 | Cc1ccc(C)cc1 [1,4-dimethylbenzene] + CN(C)c1cc[n+](COCCCOC[n+]2ccc(N(C)C)cc2)cc1.O=S(=O)([N-]S(=O)(=O)C(F)(F)F)C(F)(F)F.O=S(=O)([N-]S(=O)(=O)C(F)(F)F)C(F)(F)F | 1.34 ± 0.09 | 1.36 ± 0.09 | 1.37 ± 0.09

From the NIST ThermoML archive (doi:10.1016/j.fluid.2014.11.020)
